The text below walks through data of PubChem BioAssay AID743355 (Broad Institute, 2014).

Activity calls are given as the source filed them.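 Rule for the calls: active = signal drop with a fitted AC50 at or under twice the sample's highest valid dose; inconclusive = flat fit with signal down 30 to 70%, or poor fit; inactive = the rest, including signal rising.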

The AC50 is the concentration giving half of the maximal activity seen.

For one assay, the system named is A549 viability, CellTiter-Glo ATP luminescence, 72 h. The experiment in a line: A549 cell cytotoxicity, dose response, cytotoxicity control, luminescence, dry powder, set 9 (AID 743355).
Settings: not given
`COc1cc(C(=O)N2CCN(c3ccc(C(C)=O)cc3)CC2)cc2c1OCO2`: the AC50 is > 52 µM (inactive).

Test system in a further assay: not listed separately
The assay is described as above. Particulars: A549 viability, CellTiter-Glo ATP luminescence, 72 h; at 12 µM (top of the series).
With `N#Cc1ccc(N2CCN(C(=O)c3ccc4c(c3)OCO4)CC2)cc1`, the normalized CellTiter-Glo signal change (more negative = more cytotoxic) was -5.47% (inactive).

Staying with this assay, now noted: A549 viability, CellTiter-Glo ATP luminescence, 72 h; at 26 µM (top of the series).
Take `CC(=O)c1ccc(N2CCN(C(=O)c3ccc4c(c3)OC(C)(C)O4)CC2)cc1`: the normalized CellTiter-Glo signal change (more negative = more cytotoxic) was 5.78% (inactive).
On the same count and under the same terms, next, `O=C(c1ccc2c(c1)OCO2)N1CCN(c2ccc(S(=O)(=O)C(F)F)cc2)CC1`: 17.7% (inactive); `O=C(c1ccc2c(c1)OCO2)N1CCN(c2ccc(C(F)(F)F)cc2)CC1`: 1.09% (inactive); `CC(=O)c1ccc(N2CCN(C(=O)c3ccc4snnc4c3)CC2)cc1`: -3.89% (inactive).
Still for that read-out and setting: the same measure for `O=C(c1ccc2c(c1)OCO2)N1CCN(c2ccc(OC(F)(F)F)cc2)CC1`: 6.83% (inactive).
Same read-out and setting: the same measure for `CC(=O)c1ccc(N2CCN(C(=O)c3cc4c(cn3)OCO4)CC2)cc1`: -11.9% (inactive); for `CC(=O)c1ccc(N2CC3CC2CN3C(=O)c2ccc3c(c2)OCO3)cc1` (stereo unspecified): -9.16% (inactive).
`CC(=O)c1ccc(N2CCN(C(=O)c3cccc4c3OCO4)CC2)cc1`: the normalized CellTiter-Glo signal change (more negative = more cytotoxic) was 2.91% (inactive).
Same read-out and setting: next, `CC(=O)c1ccc(N2CCN(C(=O)c3ccc4c(c3)OCO4)CC2)cc1`: -7.97% (inactive); `CC(=O)c1ccc(N2CCN(C(=O)c3ccc(Cl)c(Cl)c3)CC2)cc1`: 5.05% (inactive).
The same measure, in the same setting: next, `COc1cc2c(cc1C(=O)N1CCN(c3ccc(C(C)=O)cc3)CC1)OCO2`: -2.21% (inactive); `CC(=O)c1ccc(N2CCN(C(=O)c3ccc4ocnc4c3)CC2)cc1`: 4.94% (inactive).
Still for that read-out and setting: next, `CN(C)S(=O)(=O)c1ccc(N2CCN(C(=O)c3ccc4c(c3)OCO4)CC2)cc1`: -6.83% (inactive).
Turning to `CC(=O)c1ccc(N2CCN(S(=O)(=O)c3ccc4c(c3)OCO4)CC2)cc1`, the normalized CellTiter-Glo signal change (more negative = more cytotoxic) is -10.1% (inactive).
The same measure, in the same setting: next, `CC(=O)c1ccc(N2CCN(C(=O)c3cc4c(cc3C)OCO4)CC2)cc1`: 1.8% (inactive); `CC(=O)c1ccc(N2CCN(C(=O)c3ccc4c(c3)OC(F)(F)O4)CC2)cc1`: -2.42% (inactive).
Still for that read-out and setting: next, `CC(=O)c1ccc(N2CCN(C(=O)Nc3ccc4c(c3)OCO4)CC2)cc1`: -14.7% (inactive); `COc1ccc(C(=O)N2CCN(c3ccc(C(C)=O)cc3)CC2)cc1OC`: 51.5% (inactive); `CC(=O)c1ccc(N2CCN(C(=O)c3ccc4c(c3C)OCO4)CC2)cc1`: -3.63% (inactive).
Same read-out and setting: the same measure for `CC(=O)c1ccc(N2CCN(C(=O)c3cc(Cl)c4c(c3)OCO4)CC2)cc1`: 6.94% (inactive).
Consider `CC(=O)c1ccc(N2CCCN(C(=O)c3ccc4c(c3)OCO4)CC2)cc1`, for which the normalized CellTiter-Glo signal change (more negative = more cytotoxic) was 9.8% (inactive).
Same read-out and setting: next, `CC(=O)c1ccc(N2CCN(C(=O)c3cc4c(cc3Cl)OCO4)CC2)cc1`: 2.51% (inactive); `O=C(c1ccc2c(c1)OCO2)N1CCN(c2ccc(S(=O)(=O)C(F)(F)F)cc2)CC1`: 21.5% (inactive).
In the case of `CS(=O)(=O)c1ccc(N2CCN(C(=O)c3ccc4c(c3)OCO4)CC2)cc1`, the normalized CellTiter-Glo signal change (more negative = more cytotoxic) is -1.14% (inactive).
